For experiment [1], the system named is DRG neuron. As to the kind of experiment: Neuronal activity in mouse DRG neurons assessed as amplification of KCl pulse-induced intracellular calcium transient at 73 uM by fluorescence microscopic analysis. The class given is functional, cell-based. (In general: Calcium assays in cells follow changes in intracellular calcium, usually with a dye or a luminescent sensor.)

Experiment [2] concerns DRG neuron. The experiment in a line: Neuronal activity in mouse DRG neurons assessed as amplification of KCl pulse-induced intracellular calcium transient at 90 uM by fluorescence microscopic analysis. In kind it is functional, cell-based.
For experiment [3], the target named is Sodium-dependent noradrenaline transporter (Homo sapiens, UniProt P23975). As to the kind of experiment: Binding affinity to human norepinephrine transporter by ligand displacement assay.
Chain of Sodium-dependent noradrenaline transporter (P23975 whole entry): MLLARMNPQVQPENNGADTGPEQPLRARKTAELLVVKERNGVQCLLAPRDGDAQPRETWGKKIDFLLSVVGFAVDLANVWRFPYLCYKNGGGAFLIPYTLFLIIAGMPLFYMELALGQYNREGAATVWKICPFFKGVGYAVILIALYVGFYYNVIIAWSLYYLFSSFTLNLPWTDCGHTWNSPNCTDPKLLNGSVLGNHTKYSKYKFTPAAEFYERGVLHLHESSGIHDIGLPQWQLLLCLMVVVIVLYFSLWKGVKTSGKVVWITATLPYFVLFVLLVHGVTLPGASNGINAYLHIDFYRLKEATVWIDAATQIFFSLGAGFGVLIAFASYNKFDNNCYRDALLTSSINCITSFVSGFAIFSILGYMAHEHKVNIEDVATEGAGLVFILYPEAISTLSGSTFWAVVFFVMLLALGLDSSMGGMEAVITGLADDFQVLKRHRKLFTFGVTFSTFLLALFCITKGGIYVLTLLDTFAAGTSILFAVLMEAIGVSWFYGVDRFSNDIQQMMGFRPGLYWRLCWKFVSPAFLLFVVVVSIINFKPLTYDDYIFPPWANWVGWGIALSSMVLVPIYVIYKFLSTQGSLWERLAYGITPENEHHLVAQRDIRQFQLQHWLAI
For experiment [4], the target named is Sodium-dependent serotonin transporter (Homo sapiens) (UniProt P31645). The experiment in a line: Binding affinity to serotonin transporter (unknown origin) at 10 uM by ligand displacement assay.
Chain of Sodium-dependent serotonin transporter (Homo sapiens) (P31645 whole entry, looked up): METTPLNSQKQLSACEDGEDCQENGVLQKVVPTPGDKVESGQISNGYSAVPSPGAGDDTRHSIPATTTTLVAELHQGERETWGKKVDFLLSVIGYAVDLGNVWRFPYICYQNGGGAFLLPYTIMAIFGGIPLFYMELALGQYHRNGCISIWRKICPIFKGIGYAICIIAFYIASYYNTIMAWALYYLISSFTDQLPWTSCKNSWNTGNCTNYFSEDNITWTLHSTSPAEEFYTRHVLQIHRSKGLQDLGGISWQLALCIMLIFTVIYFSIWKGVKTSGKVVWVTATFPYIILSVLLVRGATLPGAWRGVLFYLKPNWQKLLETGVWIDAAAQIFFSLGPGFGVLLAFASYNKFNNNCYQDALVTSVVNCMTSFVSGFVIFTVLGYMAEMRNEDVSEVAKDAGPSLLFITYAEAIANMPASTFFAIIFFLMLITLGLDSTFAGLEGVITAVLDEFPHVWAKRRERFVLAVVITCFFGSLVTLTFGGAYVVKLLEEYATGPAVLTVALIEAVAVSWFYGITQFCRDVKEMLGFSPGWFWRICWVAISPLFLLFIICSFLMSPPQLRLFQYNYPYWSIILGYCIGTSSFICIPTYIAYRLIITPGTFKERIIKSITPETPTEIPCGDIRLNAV
Experiment [5] deals with Sodium-dependent dopamine transporter (Homo sapiens) (UniProt Q01959). As to the kind of experiment: Binding affinity to dopamine transporter (unknown origin) at 10 uM by ligand displacement assay.
Chain of Sodium-dependent dopamine transporter (Homo sapiens) (Q01959 whole entry): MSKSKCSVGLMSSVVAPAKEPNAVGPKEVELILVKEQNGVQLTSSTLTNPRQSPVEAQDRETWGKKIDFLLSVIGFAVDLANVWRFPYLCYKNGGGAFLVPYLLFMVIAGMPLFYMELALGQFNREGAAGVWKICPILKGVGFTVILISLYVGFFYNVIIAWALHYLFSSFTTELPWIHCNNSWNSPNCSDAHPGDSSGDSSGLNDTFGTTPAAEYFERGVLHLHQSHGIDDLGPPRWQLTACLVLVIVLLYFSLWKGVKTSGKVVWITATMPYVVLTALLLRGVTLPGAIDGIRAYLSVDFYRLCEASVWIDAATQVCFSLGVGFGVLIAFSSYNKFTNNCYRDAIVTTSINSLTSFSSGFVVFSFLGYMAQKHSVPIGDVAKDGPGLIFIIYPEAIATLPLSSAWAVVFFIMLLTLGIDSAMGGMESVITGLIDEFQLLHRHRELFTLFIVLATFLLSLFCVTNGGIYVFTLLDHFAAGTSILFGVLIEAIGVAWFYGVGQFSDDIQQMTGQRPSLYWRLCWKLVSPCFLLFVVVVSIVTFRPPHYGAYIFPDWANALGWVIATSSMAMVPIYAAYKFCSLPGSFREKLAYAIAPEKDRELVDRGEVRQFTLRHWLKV

This note sets out measurements from ChEMBL document CHEMBL2413063, “Neuroactive diol and acyloin metabolites from cone snail-associated bacteria” (Bioorg Med Chem Lett, 2013).

Each structure is given as a SMILES string. Activity calls are given as the source filed them. The rule behind the calls is not given here.

In the case of `O=C(Cc1ccc(O)cc1)C(O)Cc1ccc(O)cc1` (stereo unspecified), the outcome in the experiment with DRG neuron [1] was Active.

Regarding `CC(C)CC(=O)C(O)Cc1ccc(O)cc1` (stereo unspecified), the result with DRG neuron [2] was inactive. Turning to `CC(C)CC(O)C(=O)Cc1ccc(O)cc1` (stereo unspecified), in the experiment on DRG neuron [2], the result was inactive. Regarding `O=C(Cc1c[nH]c2ccccc12)C(O)Cc1ccc(O)cc1` (stereo unspecified), the Ki in experiment [3] stood at 867 nM. Also, the inhibition result in experiment [4] and in experiment [5] was “inactive” throughout.

The term Ki denotes the equilibrium dissociation constant of an inhibitor or competing ligand from its target. A high value points to lower affinity.
